System: subjects with moderately to severely active RA who have an inadequate response to methotrexate (MTX)
Assay: Study 1 (add-on to MTX) - ACR responses (ACR20/50/70)
Assay type: in vivo, human
From the text: The terms “ACR20”, “ACR50” and “ACR70” as used herein are scores which indicate how much a patient's rheumatoid arthritis has improved according to criteria set out by the American College of Rheumatology (ACR). The ACR score represents a percentage. An ACR20 score means that a person's RA has improved by 20%, an ACR50 score means it has improved by 50%, and an ACR70 score means it has improved by 70%. Specifically, to qualify for an ACR20 score, a person with RA must have at least 20% fewer tender joints and at least 20% fewer swollen joints. In addition the patient must show a 20% improvement in at least three of the following five areas: the person's overall (global) assessment of his or her own RA, the physician's global assessment of the person's RA, the person's assessment of his or her own pain, the person's assessment of his or her own physical functioning, and the results of an erythrocyte sedimentation rate or C-reactive protein (CRP) blood test (both of which test for inflammation). ACR50 and ACR70 scores use the same criteria but require 50% and 70% improvement, respectively, (Felson et al., 1993). In the data presented herein the CRP blood test is used.
Double-blind, placebo-controlled add on study in subjects with moderately to severely active RA who have an inadequate response to methotrexate (MTX) (oral or parenteral).
595 subjects randomized to one of 6 dose regimens of Compound 1 (dosed as [Compound 1:HCl:3H2O]) (3 dose levels administered either once or twice daily) or placebo on top of each subject's stable dose of MTX.
Compound 1 (dosed as [Compound 1:HCl:3H2O]) is dosed for twelve weeks once daily (q.d.) (50 mg, 100 mg or 200 mg) or twice daily (b.i.d.) (25 mg, 50 mg or 100 mg); or placebo.
At Week 12, the subjects on placebo who have not achieved 20% improvement in swollen joint count (SJC66) and tender joint count (TJC68) are re-randomized automatically to receive Compound 1 (dosed as a [Compound 1:HCl:3H2O]) either at 100 mg q.d. or 50 mg b.i.d. doses in a blinded fashion; subjects on 50 mg q.d. who have not achieved 20% improvement in SJC66 and TJC68 will be assigned to 100 mg q.d. and subjects on 25 mg b.i.d. that have not achieved a 20% improvement in SJC66 and TJC68 will be assigned to 50 mg b.i.d. Subjects who switch treatment at week 12 are handled as if they discontinued at week 12 for the purpose of statistical analysis, whereas subjects in the other groups will maintain their randomized treatment until Week 24.
The American College of Rheumatology (ACR) composite score, which evaluates clinical improvement relative to an initial assessment, is a commonly accepted efficacy end point for clinical trials in patients with rheumatoid arthritis. The ACR score correspond to a percentage improvement in pre-set parameters, and therefore measures the evolution of the disease in a patient. For example, ACR20 denotes at least 20% improvement in tender and swollen joint counts and in three of the following end points: global assessment by the patient, global assessment by the doctor, C reactive protein (CRP), patient's pain Visual Analogue Scale and Health Assessment Questionnaire Score. The number of swollen joints, ESR and CRP correlate with radiographic progression of joint damage, whereas tender joint counts, as well as global assessments by doctors and patients, and patients' reports of pain, are sensitive to change in clinical outcomes. Physical function, as assessed by the Health Assessment Questionnaire Score, is a potent predictor of the risk of disability in rheumatoid arthritis (Felson and American College of Rheumatology Committee to Reevaluate Improvement Criteria, 2007; Felson et al., 1993).
In particular, the list of parameters used to assess ACR score can be found in the Table XCVI below and the results of the ACR responses at week 12 via either NRI or LOCF are shown in the tables below. The Hommel-corrected p-value for the pairwise comparisons of each group with placebo is shown. […]

[1] = 50 mg q.d., week 2, 12 weeks results
[2] = 50 mg q.d., week 2, 24 weeks results
[3] = 50 mg q.d., week 4, 12 weeks results
[4] = 50 mg q.d., week 4, 24 weeks results
[5] = 50 mg q.d., week 12, 12 weeks results
[6] = 50 mg q.d., week 12, 24 weeks results
[7] = 50 mg q.d., week 16, 24 weeks results
[8] = 50 mg q.d., week 20, 24 weeks results
[9] = 50 mg q.d., week 24, 24 weeks results
[10] = 50 mg q.d., at week 1, 12 weeks results
[11] = 50 mg q.d., at week 1, 24 weeks results
[12] = 50 mg q.d., week 8, 12 weeks results
[13] = 50 mg q.d., week 8, 24 weeks results
[14] = 100 mg q.d., week 2, 12 weeks results
[15] = 100 mg q.d., week 2, 24 weeks results
[16] = 100 mg q.d., week 4, 12 weeks results
[17] = 100 mg q.d., week 4, 24 weeks results
[18] = 100 mg q.d., week 8, 24 weeks results
[19] = 100 mg q.d., week 12, 12 weeks results

O=C(Nc1nc2cccc(-c3ccc(CN4CCS(=O)(=O)CC4)cc3)n2n1)C1CC1 [Compound 1, cyclopropanecarboxylic acid {5-[4-(1,1-dioxo-thiomorpholin-4-ylmethyl)-phenyl]-[1,2,4]triazolo[1,5-a]pyridin-2-yl}-amide]
ACR20 (LOCF) [1]: 39.0%
ACR20 (NRI) [1]: 37.8%
ACR50 (LOCF) [1]: 7.3%
ACR50 (NRI) [1]: 7.3%
ACR70 (LOCF) [1]: 2.4%
ACR70 (NRI) [1]: 2.4%
ACR20 (LOCF) [2]: 39.0%
ACR20 (NRI) [2]: 37.8%
ACR50 (LOCF) [2]: 7.3%
ACR50 (NRI) [2]: 7.3%
ACR70 (LOCF) [2]: 2.4%
ACR70 (NRI) [2]: 2.4%
ACR20 (LOCF) [3]: 45.1%
ACR20 (NRI) [3]: 42.7%
ACR50 (LOCF) [3]: 12.2%
ACR50 (NRI) [3]: 12.2%
ACR70 (LOCF) [3]: 7.3%
ACR70 (NRI) [3]: 7.3%
ACR20 (LOCF) [4]: 45.1%
ACR20 (NRI) [4]: 42.7%
ACR50 (LOCF) [4]: 12.2%
ACR50 (NRI) [4]: 12.2%
ACR70 (LOCF) [4]: 7.3%
ACR70 (NRI) [4]: 7.3%
ACR20 (LOCF) [5]: 59.8%
ACR20 (NRI) [5]: 56.1%
ACR50 (LOCF) [5]: 31.7%
ACR50 (NRI) [5]: 31.7%
ACR70 (LOCF) [5]: 15.9%
ACR70 (NRI) [5]: 15.9%
ACR20 (LOCF) [6]: 59.8%
ACR20 (NRI) [6]: 56.1%
ACR50 (LOCF) [6]: 31.7%
ACR50 (NRI) [6]: 31.7%
ACR70 (LOCF) [6]: 15.9%
ACR70 (NRI) [6]: 15.9%
ACR20 (LOCF) [7]: 59.8%
ACR20 (NRI) [7]: 56.1%
ACR50 (LOCF) [7]: 37.8%
ACR50 (NRI) [7]: 37.8%
ACR70 (LOCF) [7]: 18.3%
ACR70 (NRI) [7]: 18.3%
ACR20 (LOCF) [8]: 61.0%
ACR20 (NRI) [8]: 57.3%
ACR50 (LOCF) [8]: 39.0%
ACR70 (LOCF) [8]: 23.2%
ACR20 (LOCF) [9]: 61.0%
ACR20 (NRI) [9]: 54.9%
ACR50 (LOCF) [9]: 36.6%
ACR70 (LOCF) [9]: 22.0%
ACR20 (LOCF) [10]: 22.0%
ACR20 (NRI) [10]: 22.0%
ACR50 (LOCF) [10]: 2.4%
ACR50 (NRI) [10]: 2.4%
ACR70 (LOCF) [10]: 0.0%
ACR70 (NRI) [10]: 0.0%
ACR20 (LOCF) [11]: 22.0%
ACR20 (NRI) [11]: 22.0%
ACR50 (LOCF) [11]: 2.4%
ACR50 (NRI) [11]: 2.4%
ACR70 (LOCF) [11]: 0.0%
ACR70 (NRI) [11]: 0.0%
ACR20 (LOCF) [12]: 57.3%
ACR20 (NRI) [12]: 54.9%
ACR50 (LOCF) [12]: 25.6%
ACR50 (NRI) [12]: 26.8%
ACR70 (LOCF) [12]: 11.0%
ACR70 (NRI) [12]: 11.0%
ACR20 (LOCF) [13]: 57.3%
ACR20 (NRI) [13]: 54.9%
ACR50 (LOCF) [13]: 26.8%
ACR50 (NRI) [13]: 26.8%
ACR70 (LOCF) [13]: 11.0%
ACR70 (NRI) [13]: 11.0%
ACR20 (LOCF) [14]: 45.9%
ACR20 (NRI) [14]: 47.1%
ACR50 (LOCF) [14]: 20.0%
ACR50 (NRI) [14]: 20.0%
ACR70 (LOCF) [14]: 7.1%
ACR70 (NRI) [14]: 7.1%
ACR20 (LOCF) [15]: 48.2%
ACR20 (NRI) [15]: 47.1%
ACR50 (LOCF) [15]: 20.0%
ACR50 (NRI) [15]: 20.0%
ACR70 (LOCF) [15]: 7.1%
ACR70 (NRI) [15]: 7.1%
ACR20 (LOCF) [16]: 48.2%
ACR20 (NRI) [16]: 50.6%
ACR50 (LOCF) [16]: 32.9%
ACR50 (NRI) [16]: 32.9%
ACR70 (LOCF) [16]: 15.3%
ACR70 (NRI) [16]: 15.3%
ACR20 (LOCF) [17]: 51.8%
ACR20 (NRI) [17]: 51.8%
ACR50 (LOCF) [17]: 32.9%
ACR50 (NRI) [17]: 32.9%
ACR70 (LOCF) [17]: 15.3%
ACR70 (NRI) [17]: 15.3%
ACR20 (LOCF) [18]: 64.7%
ACR20 (NRI) [18]: 64.7%
ACR50 (LOCF) [18]: 35.3%
ACR50 (NRI) [18]: 35.3%
ACR70 (LOCF) [18]: 23.5%
ACR70 (NRI) [18]: 23.5%
ACR20 (LOCF) [19]: 63.5%
ACR20 (NRI) [19]: 62.4%
ACR50 (LOCF) [19]: 38.8%
ACR50 (NRI) [19]: 38.8%
